Legend:
[1] = Molar enthalpy of transition or fusion; conditions: Crystal; DSC
[2] = for mass density: 101.33 kPa, Liquid, Vibrating tube method; for Triple point temperature: Crystal

CCCC[n+]1cccc2ccccc21.O=S(=O)([N-]S(=O)(=O)C(F)(F)F)C(F)(F)F [1-butylquinolinium bis((trifluoromethyl)sulfonyl)amide]
Conditions | Molar enthalpy of transition or fusion [kcal/mol]
[1] | 10.5

[2]
Conditions | Triple point temperature [K] | mass density [kg/m3]
333.15 K | – | 1416.26
343.15 K | – | 1407.38
353.15 K | – | 1398.52
363.15 K | – | 1389.69
DTA | 329.12 | –
visual observation | 329.62 | –

From the NIST ThermoML archive (doi:10.1016/j.jct.2010.04.020)
